What was measured:
rat liver = test: Histopathological examination of DMN-induced liver damage; type: in vivo
Description: A rat hepatic fibrosis model was set up through the use of DMN. DMN is a potent hepatoxin that specifically targets the liver and can cause liver fibrosis. The histopathological changes resulting from DMN treatment involve the rapid deposition of collagen, the major protein of fibrosis and important to the process of cirrhosis. […] The DMN-induced liver fibrosis model was performed as described in Jezequel A. M. et al. (14). Male Sprague-Dawley rats (Slc:SD; Japan SLC, Shizuoka, Japan), weighing from 300 to 350 grams, were used in the experiments. To induce hepatic fibrosis over a six-week time course experiment, the rats were given DMN (Sigma, Saint Louis, Mo.), dissolved in normal saline, three consecutive days a week for the first three consecutive weeks at the dosage of 6.7 mg/kg per body weight by intraperitoneal injection. Injection time points are shown as inverted triangles in FIG. 1. Injections were at a much lower dosage than those used in other experiments where the dosage was 100 mg/kg/day. The higher dosage can cause toxicity in rat liver (21, 22).)
Two to seven rats at each time point were treated with either DMN or with an equal volume of normal saline without DMN as the control (26 DMN-treated rats and 24 control rats). Rats were weighed and sacrificed on days 11, 18, 25, 32, 39, and 46 (sacrifice time points are shown as triangles in FIG. 1A) respectively. These triangular time points were designated as weeks 1 through 6 (FIG. 1A).
Liver tissues were immediately removed after sacrifice and subject to histopathological examination. The fixed liver samples were then processed for paraffin embedding. Five micrometer (5 μm) sections were prepared for hematoxylin and eosin staining (to score necroinflammatory and fatty changes) and for Sirius red/fast green collagen staining (to score for fibrosis) (23). The fatty changes were classified as presence (+) or absence (−).
In FIG. 2A, the representative phenotypes of the DMN-induced rat liver fibrosis were characterized by scoring the four histopathological features (necrosis, inflammation, fibrosis, and fatty change) as follows: the necrosis scores were from N0 to N3 (the first panel), and the inflammation scores were from I0 to I3. The scoring system for examining the intensity of liver fibrosis was modified from the scoring system of the Hepatitis Activity Index (HAI) (29, 30). Fibrosis was divided into four scores: normal (F0), fibrous expansion of portal tracts (F1), bridging fibrosis (F2) and frequent bridging fibrosis with focal nodule formation (F3). The fatty change was scored as present (+) or absent (−), respectively (the last panel). The images of the fatty change are shown at 200× magnification, whereas the others are shown at 100× magnification (FIG. 2A).
The results were ranked by time course. The necroinflammatory scores were the sum of the necrosis and inflammation scores and range from A0 to A6. The necroinflammatory change was divided into three grades: A0=none, A(1-3)=mild and A(4-6)=moderate necroinflammation. The fibrosis change was divided into two grades: F(0-1)=normal to fibrous expansion of portal tracts, F(2-3)=bridge fibrosis to frequent bridging fibrosis with nodule formation. The fatty change was shown as presence (+) or absence (−). The number of rats was counted and used to calculate the percentage of each histopathological level at each time point.

[1] = system: Tgfβ1, Timp1, Timp2, Mmp3, Ggtp mRNA in rat liver; test: Q-RT-PCR of liver mRNA in DMN-treated rats; type: in vivo
Description: To gain additional information about the established animal model, Q-RT-PCR was used to evaluate the gene expression profile of transforming growth factor-1 (Tgfβ1), which is the strongest known inducer of fibrogenesis in the effector cells of hepatic fibrosis that can stimulate the adipocyte transformation (24-27). The same total RNA samples were used for both microarray and Q-RT-PCR analyses. RNA preparation and analysis were performed according to Affymetrix's (Santa Clara, Calif., U.S.A.) instructions. The TAQMAN® assays were conducted in triplicate for each sample, and a mean value was used for calculation of expression levels. To standardize the quantification of the target genes, 18S ribosomal RNA (18S rRNA) from each sample was quantified on the same plate with the target genes. […] The changes were in agreement with observations described in Jezequel A. M. et al. (14). In sum, these examinations support the DMN-induced rat hepatic fibrosis model.
To validate the microarray data, Q-RT-PCR analysis was performed for tissue inhibitor of metalloproteinase 1 (Timp1), tissue inhibitor of metalloproteinase 2 (Timp2), matrix metalloproteinase 3 (Mmp3) and gamma-glutamyl transpeptidase (Ggtp). These genes were chosen for validation because these genes occurred both in this GeneChip study and in previous studies.
Moreover, a good concordance based on the fold changes between microarray data and Q-RT-PCR results was observed. […] TAQMAN® assays were conducted in triplicate for each sample, and a mean value was used for calculation of expression levels (marked by the square). To standardize the quantification of the Timp1 transcript, 18S rRNA from each sample was quantified on the same plate as the target gene, as indicated by the log scale on the right side of plot. The expression levels of the two Timp1 transcripts, rc_AI169327_at and rc_AI169327_g_at (marked by a circle and a triangle, respectively), were set forth relative to the mean of all gene expression levels as indicated by the scale on the left side of plot.

[2] = Q-RT-PCR, DMN-treated samples, data not shown

In the case of `CN(C)N=O` [DMN, Dimethylnitrosamine], the “abnormality in the kidney or spleen” value (rat liver; DMN-treated rats, data not shown) is reported as “no clear abnormality”, the “DMN-treated rats with none (F0) or low levels of fibrosis (F1)” value (rat liver; first two weeks, 6.7 mg/kg i.p.) is reported as “seventy-five” and the “DMN-treated rats with F2 and F3 fibrosis” value (rat liver; last two weeks) is reported as 78%. The “treated rats with fatty changes present” value (rat liver; six-week time course) was 3.7%, the “DMN-treated rats with high levels of fibrosis (F2 to F3)” value (rat liver; third to fourth week) was about 90% and the “Tgfβ1 mRNA expression in liver vs controls” value ([1]; Q-RT-PCR, DMN-treated rat livers) was “higher level of mRNA expression”. The Ggtp expression [1, 2] was “elevated”, the Mmp3 expression [1, 2] was “elevated” and the Timp2 expression [1, 2] was “elevated”. For the same compound, the “Timp1 expression elevation in DMN-treated rats” value ([1]; both microarray and Q-RT-PCR experiments) was “over 20 fold”.
